Measurements as given in article PMC7481761 (Virologica Sinica, 2020).
pIC50: −log10 of the molar value. Where two headings read alike, the source gives them in different places. Marks after values point to notes of the source that are not given here.

Assays:
[1] = system: SARS-CoV-2; format: cell-based
[2] = system: Huh7 cells; conditions: CCK-8 assay
[3] = system: SARS-CoV-2; format: cell-based; remark: listed apart in the source
[4] = system: SARS-CoV-2; experiment: microbe, parasite or virus in culture; format: cell-based; conditions: for pIC50: Severe acute respiratory syndrome coronavirus 2, Huh-7, 48 h
[5] = in vitro; conditions: African green monkey
[6] = system: SARS-CoV-2; experiment: Time-of-drug-addition assay in Vero E6 cells; format: cell-based
[7] = In vivo plasma exposure in humans; parameters: species or system human
[8] = plasma; ref Cvetkovic and Goa (2003); cited from earlier work
[9] = in vitro; conditions: human
[10] = system: SARS-CoV-2; format: cell-based; conditions: Vero E6 cells, CC50/IC50
[11] = system: Vero E6 cells; conditions: read-out: CC50 (half cytotoxic concentration)

Structure (SMILES) | NP expression by IFA [1] | CC50 [2] [µM] | inhibitory effect by IFA [3] | pIC50 [4] | CC50 [5] [µM] | stage of infection at which the compound acts (time-of-drug-addition) [6] | In vivo concentration Unbound Cmin [7] [µmol/L] | In vivo concentration Cmin [8] | selectivity index (SI) ([4]; Huh7 cells, CC50/IC50) | CC50 [9] [µM] | selectivity index (SI) [10] | CC50 [11] [µM]
Cc1cccc(C)c1OCC(=O)N[C@@H](Cc1ccccc1)[C@@H](O)C[C@H](Cc1ccccc1)NC(=O)[C@H](C(C)C)N1CCCNC1=O [Lopinavir, lopinavir] | decreased NP expression levels | 64.4 | IFA confirmed the inhibitory effect | 5.11 | 80.8 | inhibited SARS-CoV-2 infection after virus entry, but not during virus entry | – | – | – | – | – | –
CC(C)c1nc(CN(C)C(=O)N[C@H](C(=O)N[C@@H](Cc2ccccc2)C[C@H](O)[C@H](Cc2ccccc2)NC(=O)OCc2cncs2)C(C)C)cs1 [Ritonavir, ritonavir] | decreased NP expression levels | – | IFA confirmed the inhibitory effect | 4.93 | – | inhibited SARS-CoV-2 infection after virus entry, but not during virus entry | 0.0006 | 0.038^e µmol/L | – | – | – | –
CCOC(=O)/C=C/[C@H](C[C@@H]1CCNC1=O)NC(=O)[C@@H](CC(=O)[C@@H](NC(=O)c1cc(C)on1)C(C)C)Cc1ccc(F)cc1 [Rupintrivir, rupintrivir] | confirmed by IFA | – | confirmed by IFA | 4.60 | > 100 | inhibit SARS-CoV-2 at the stages post virus infection | – | – | > 3.94 | > 100 | > 2.93 | –
C#CC[C@@H](C(=O)N[C@H](/C=C/C(=O)OCC)C[C@@H]1CCNC1=O)n1cccc(NC(=O)c2cc(C)on2)c1=O [AG7404] | confirmed by IFA | > 400 | confirmed by IFA | 4.03 | – | inhibit SARS-CoV-2 at the stages post virus infection | – | – | – | – | – | > 400
